PubChem BioAssay (NCI)
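Method: 48-hour compound exposure of cells in 96-well plates, five concentrations, linear interpolation of endpoints. TGI marks complete inhibition of growth.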

What was measured:
Experiment in all cases: NCI tumour cell line growth inhibition, 48 h
RXF 393 renal = system: RXF 393 renal
KM12 colon = system: KM12 colon
SK-OV-3 ovarian = system: SK-OV-3 ovarian
MALME-3M melanoma = system: MALME-3M melanoma
MDA-MB-231 breast = system: MDA-MB-231 breast
MOLT-4 leukemia = system: MOLT-4 leukemia
NCI-H460 lung = system: NCI-H460 lung
HCT-15 colon = system: HCT-15 colon
EKVX NSCLC = system: EKVX NSCLC
SK-MEL-2 melanoma = system: SK-MEL-2 melanoma
A549 NSCLC = system: A549 NSCLC
MCF7 breast = system: MCF7 breast
RPMI-8226 leukemia = system: RPMI-8226 leukemia
UACC-257 melanoma = system: UACC-257 melanoma
SNB-19 CNS = system: SNB-19 CNS
HOP-92 NSCLC = system: HOP-92 NSCLC
OVCAR-3 ovarian = system: OVCAR-3 ovarian
NCI-H23 lung = system: NCI-H23 lung
ACHN renal = system: ACHN renal
SN12C renal = system: SN12C renal
SK-MEL-28 melanoma = system: SK-MEL-28 melanoma
786-0 renal = system: 786-0 renal
K-562 leukemia = system: K-562 leukemia
HCT-116 colon = system: HCT-116 colon
COLO 205 colon = system: COLO 205 colon
SF-539 CNS = system: SF-539 CNS
SW-620 colon = system: SW-620 colon
CCRF-CEM leukemia = system: CCRF-CEM leukemia
U251 CNS = system: U251 CNS
PC-3 prostate = system: PC-3 prostate
HS 578T breast = system: HS 578T breast
SF-295 CNS = system: SF-295 CNS
A498 renal = system: A498 renal
UACC-62 melanoma = system: UACC-62 melanoma
NCI-H226 lung = system: NCI-H226 lung
SR leukemia = system: SR leukemia
HCC-2998 colon = system: HCC-2998 colon
HL-60(TB) leukemia = system: HL-60(TB) leukemia
OVCAR-8 ovarian = system: OVCAR-8 ovarian
SK-MEL-5 melanoma = system: SK-MEL-5 melanoma
M14 melanoma = system: M14 melanoma
SNB-75 CNS = system: SNB-75 CNS
IGROV1 ovarian = system: IGROV1 ovarian
DU-145 prostate = system: DU-145 prostate
CAKI-1 renal = system: CAKI-1 renal
OVCAR-5 ovarian = system: OVCAR-5 ovarian
MDA-MB-435 = system: MDA-MB-435
HT29 colon = system: HT29 colon
LOX IMVI melanoma = system: LOX IMVI melanoma
NCI-H522 lung = system: NCI-H522 lung
TK-10 renal = system: TK-10 renal
NCI/ADR-RES ovarian = system: NCI/ADR-RES ovarian
HOP-62 NSCLC = system: HOP-62 NSCLC
T-47D breast = system: T-47D breast
MDA-N = system: MDA-N
UO-31 renal = system: UO-31 renal
SF-268 CNS = system: SF-268 CNS
BT-549 breast = system: BT-549 breast
OVCAR-4 ovarian = system: OVCAR-4 ovarian

C=C1CC(c2ccc(OCCCN3C(=O)c4ccccc4C3=O)cc2)OC1=O (stereo unspecified)
TGI (RXF 393 renal): 3.65 µM | TGI (KM12 colon): 16.8 µM | TGI (SK-OV-3 ovarian): 27.5 µM | TGI (MALME-3M melanoma): 7.27 µM | TGI (MDA-MB-231 breast): 13 µM | TGI (MOLT-4 leukemia): 4.06 µM | TGI (NCI-H460 lung): 8.42 µM | TGI (HCT-15 colon): 6.84 µM | TGI (EKVX NSCLC): 18.4 µM | TGI (SK-MEL-2 melanoma): 4.98 µM | TGI (A549 NSCLC): 39.2 µM | TGI (MCF7 breast): 6.46 µM | TGI (RPMI-8226 leukemia): 3.68 µM | TGI (UACC-257 melanoma): 7.55 µM | TGI (SNB-19 CNS): 25.5 µM | TGI (HOP-92 NSCLC): 2.99 µM | TGI (OVCAR-3 ovarian): 5.31 µM | TGI (NCI-H23 lung): 9.34 µM | TGI (ACHN renal): 10.4 µM | TGI (SN12C renal): 12.3 µM | TGI (SK-MEL-28 melanoma): 3.98 µM | TGI (786-0 renal): 5.23 µM | TGI (K-562 leukemia): 3.16 µM | TGI (HCT-116 colon): 4.89 µM | TGI (COLO 205 colon): 6.37 µM | TGI (SF-539 CNS): 0.827 µM | TGI (SW-620 colon): 2.99 µM | TGI (CCRF-CEM leukemia): 4.56 µM | TGI (U251 CNS): 10.7 µM | TGI (PC-3 prostate): 10.9 µM | TGI (HS 578T breast): 20.4 µM | TGI (SF-295 CNS): 25.5 µM | TGI (A498 renal): 3.56 µM | TGI (UACC-62 melanoma): 4.75 µM | TGI (NCI-H226 lung): 11.4 µM | TGI (SR leukemia): 8.57 µM | TGI (HCC-2998 colon): 16.8 µM | TGI (HL-60(TB) leukemia): 5.22 µM | TGI (OVCAR-8 ovarian): 9.35 µM | TGI (SK-MEL-5 melanoma): 20.4 µM | TGI (M14 melanoma): 9.09 µM | TGI (SNB-75 CNS): 23.7 µM | TGI (IGROV1 ovarian): 4.57 µM | TGI (DU-145 prostate): 16.3 µM | TGI (CAKI-1 renal): 6.54 µM | TGI (OVCAR-5 ovarian): 25.5 µM | TGI (MDA-MB-435): 9.2 µM | TGI (HT29 colon): 9.24 µM | TGI (LOX IMVI melanoma): 3.77 µM | TGI (NCI-H522 lung): 1.83 µM | TGI (TK-10 renal): 14.5 µM | TGI (NCI/ADR-RES ovarian): > 95.1 µM | TGI (HOP-62 NSCLC): 33.2 µM | TGI (T-47D breast): > 34.7 µM | TGI (MDA-N): 10.7 µM | TGI (UO-31 renal): 7.81 µM | TGI (SF-268 CNS): 15.4 µM

O=C(c1ccccc1)N(C(=O)c1ccccc1)c1nc(SCc2ccccc2)ns1
TGI (RXF 393 renal): > 100 µM | TGI (KM12 colon): > 100 µM | TGI (SK-OV-3 ovarian): > 100 µM | TGI (MALME-3M melanoma): 74.8 µM | TGI (MOLT-4 leukemia): 78 µM | TGI (NCI-H460 lung): 56.2 µM | TGI (HCT-15 colon): 65.3 µM | TGI (EKVX NSCLC): 68.7 µM | TGI (SK-MEL-2 melanoma): 49.5 µM | TGI (A549 NSCLC): > 100 µM | TGI (MCF7 breast): > 100 µM | TGI (BT-549 breast): 70.5 µM | TGI (RPMI-8226 leukemia): 56.6 µM | TGI (UACC-257 melanoma): 60.5 µM | TGI (SNB-19 CNS): > 100 µM | TGI (HOP-92 NSCLC): 73.6 µM | TGI (OVCAR-3 ovarian): 59.4 µM | TGI (NCI-H23 lung): 57.3 µM | TGI (ACHN renal): > 100 µM | TGI (SN12C renal): 64.7 µM | TGI (SK-MEL-28 melanoma): 93.1 µM | TGI (786-0 renal): 70.5 µM | TGI (K-562 leukemia): > 100 µM | TGI (HCT-116 colon): 57.3 µM | TGI (COLO 205 colon): 40.3 µM | TGI (SF-539 CNS): 44.1 µM | TGI (SW-620 colon): > 100 µM | TGI (CCRF-CEM leukemia): 65.3 µM | TGI (U251 CNS): 37.8 µM | TGI (PC-3 prostate): 71 µM | TGI (HS 578T breast): 86.3 µM | TGI (SF-295 CNS): 79.1 µM | TGI (A498 renal): 73.9 µM | TGI (UACC-62 melanoma): 42.9 µM | TGI (NCI-H226 lung): 78.7 µM | TGI (SR leukemia): 57.9 µM | TGI (HCC-2998 colon): 49.9 µM | TGI (HL-60(TB) leukemia): 52.6 µM | TGI (OVCAR-8 ovarian): > 100 µM | TGI (SK-MEL-5 melanoma): 30.6 µM | TGI (M14 melanoma): 86.1 µM | TGI (SNB-75 CNS): 58.1 µM | TGI (IGROV1 ovarian): > 100 µM | TGI (DU-145 prostate): > 100 µM | TGI (CAKI-1 renal): > 100 µM | TGI (OVCAR-5 ovarian): 86.8 µM | TGI (MDA-MB-435): 91.8 µM | TGI (OVCAR-4 ovarian): > 100 µM | TGI (HT29 colon): 84.8 µM | TGI (LOX IMVI melanoma): 60.4 µM | TGI (NCI-H522 lung): 61.5 µM | TGI (TK-10 renal): 84.5 µM | TGI (NCI/ADR-RES ovarian): 78.7 µM | TGI (HOP-62 NSCLC): 87.1 µM | TGI (T-47D breast): > 100 µM | TGI (MDA-N): 90.5 µM | TGI (UO-31 renal): 23.7 µM | TGI (SF-268 CNS): > 100 µM

O=c1[nH]nc(Cc2ccccc2)n1C1CCCC1
TGI (RXF 393 renal): > 100 µM | TGI (KM12 colon): > 100 µM | TGI (SK-OV-3 ovarian): > 100 µM | TGI (MALME-3M melanoma): > 100 µM | TGI (MDA-MB-231 breast): > 100 µM | TGI (MOLT-4 leukemia): > 100 µM | TGI (NCI-H460 lung): > 100 µM | TGI (HCT-15 colon): > 100 µM | TGI (EKVX NSCLC): > 100 µM | TGI (A549 NSCLC): > 100 µM | TGI (MCF7 breast): > 100 µM | TGI (RPMI-8226 leukemia): > 100 µM | TGI (UACC-257 melanoma): > 100 µM | TGI (SNB-19 CNS): > 100 µM | TGI (OVCAR-3 ovarian): > 100 µM | TGI (NCI-H23 lung): > 100 µM | TGI (ACHN renal): > 100 µM | TGI (SN12C renal): > 100 µM | TGI (SK-MEL-28 melanoma): > 100 µM | TGI (786-0 renal): > 100 µM | TGI (K-562 leukemia): > 100 µM | TGI (HCT-116 colon): > 100 µM | TGI (COLO 205 colon): > 100 µM | TGI (SF-539 CNS): > 100 µM | TGI (SW-620 colon): > 100 µM | TGI (CCRF-CEM leukemia): > 100 µM | TGI (U251 CNS): > 100 µM | TGI (PC-3 prostate): > 100 µM | TGI (HS 578T breast): > 100 µM | TGI (SF-295 CNS): > 100 µM | TGI (A498 renal): > 100 µM | TGI (UACC-62 melanoma): > 100 µM | TGI (NCI-H226 lung): > 100 µM | TGI (SR leukemia): > 100 µM | TGI (HCC-2998 colon): > 100 µM | TGI (HL-60(TB) leukemia): > 100 µM | TGI (OVCAR-8 ovarian): > 100 µM | TGI (SK-MEL-5 melanoma): > 100 µM | TGI (M14 melanoma): > 100 µM | TGI (SNB-75 CNS): > 100 µM | TGI (IGROV1 ovarian): > 100 µM | TGI (DU-145 prostate): > 100 µM | TGI (CAKI-1 renal): > 100 µM | TGI (OVCAR-5 ovarian): > 100 µM | TGI (MDA-MB-435): > 100 µM | TGI (OVCAR-4 ovarian): > 100 µM | TGI (HT29 colon): > 100 µM | TGI (LOX IMVI melanoma): > 100 µM | TGI (NCI-H522 lung): > 100 µM | TGI (TK-10 renal): > 100 µM | TGI (NCI/ADR-RES ovarian): > 100 µM | TGI (HOP-62 NSCLC): > 100 µM | TGI (T-47D breast): > 100 µM | TGI (MDA-N): > 100 µM | TGI (UO-31 renal): > 100 µM | TGI (SF-268 CNS): > 100 µM
